Marks after values point to notes of the source that are not given here.
Experiments:
HRQL of mCRPC patients = experiment: Same clinical study: health-related quality of life, FACT-P questionnaire; format: in vivo, human
Experimental: Pain response was defined as a decrease≥30% from baseline in BPI-SF pain intensity score with no increased analgesic use. HRQL was assessed using the Functional Assessment of Cancer Therapy-Prostate (FACT-P) questionnaire. Pain intensity was defined using item 3 of the validated Brief Pain Inventory-Short Form (BPI-SF), which rates pain at its worst in the last 24 hours on a scale of 0 (no pain) to 10 (worst imaginable pain). Analgesic consumption was reported by local investigators and coded by the World Health Organization's analgesic ladder (0=no analgesic; 1=non-opioid analgesics; 2=opioid analgesics for moderate pain; 3=opioids for severe pain). […] A clinically meaningful improvement or deterioration of total FACT-P score was defined as a difference of ±10 points from baseline. Clinically meaningful changes in HRQL and pain response were confirmed at two consecutive evaluations≥3 weeks apart during the on-treatment period. Survival curves were generated by Kaplan-Meier estimates.
Time to deterioration was defined on two consecutive evaluations, ≥3 weeks apart as follows: • decrease of ≥10 points from baseline for FACT-P total score • decrease of ≥3 points from baseline for physical, social, emotional and functional well-being • decrease of ≥2 points from baseline for the pain PCS subscale • decrease of ≥9 points from baseline for FACT-G total and FACT-P TOI subscales
FACT-P, a validated 39-item questionnaire evaluated 5 wellbeing domains: physical (PWB, 0-28), social and family (SWB, 0-28), emotional (EWB, 0-24), functional (FWB, 0-28), and prostate specific (PCS, 0-48).
Total FACT-P score (PWB+SWB+EWB+FWB+PCS; 0-156), total FACT-G score (PWB+SWB+EWB+FWB; 0-108), FACT-P trial outcome index (PWB+FWB+PCS; 0-104), and PCS-Pain were calculated. The FACT-P overall score ranges from 0 to 156, higher values indicating a higher HRQL
To control for type I error due to multiple comparisons, a hierarchical testing procedure was applied for the primary and key secondary end points. […] Further tests were stopped once a comparison was found not statistically significant at two-sided alpha level of 0.05. Descriptive statistics for FACT-P and EQ-5D-5L scores were provided for all cycles for which the number of evaluable patients reached ≥20% of the PRO population. For qualitative parameters, proportions of patients with deterioration, no change, and improvement were provided.
The comparison of changes from baseline on PROs was analyzed using a mixed linear repeated measures model where treatment is a fixed effect variable and subject is a random effect variable. Stratification variables were included in the model as covariates as well as the interaction treatment visit. The least square means by treatment group with the corresponding 95% CI obtained from the mixed model were presented graphically. No adjustments for multiplicity were made.
Compliance with the planned assessment schedule was calculated at baseline and for each treatment cycle as the proportion of patients still receiving study treatment at this time point. No formal imputation for missing data was carried out and reasons for missing data were not centrally recorded. FACT-P total score was evaluable when >80% of questions were answered. For individual FACT-P subscales, a score was evaluable when >50% of the questions in the subscale domain were answered. If <50% of the questions were missing in any FACT-P subscale, the subscale score could be imputed by prorated subscale scores using the following formula: Prorated subscale score=[Sum of question scores]×[N of questions in subscale][…][N of questions answered].

[1] = system: symptomatic skeletal events in mCRPC patients; experiment: Same clinical study: symptomatic skeletal events (SSE); format: in vivo, human
Description: Time to symptomatic skeletal event rate: is defined as the time interval between the date of randomization and the date of the occurrence of the first event defining a symptomatic skeletal event (occurrence of a new symptomatic fracture, use of radiation therapy to relieve bone pain, occurrence of spinal cord compression or cancer-related orthopedic surgical intervention).
SSEs were defined as either the use of external beam radiation to relieve bone pain, occurrence of new symptomatic pathologic fractures, occurrence of spinal cord compression, or tumor-related orthopedic surgical intervention. SSEs were evaluated at baseline, at each visit, at the end of treatment, and every 12 weeks during follow-up. Standard imaging (bone scans and computed tomography or magnetic resonance imaging of the pelvis, abdomen, and chest) was scheduled at baseline and every 12 weeks until imaging-based disease progression. Pathologic fractures and spinal cord compression were assessed by imaging as needed throughout the study. Time to SSE was defined as time from randomization until first documented SSE.
Efficacy analysis used all randomized patients. Stratified log-rank tests were used to analyze time-to-event data. The primary analysis compared radiographic progression-free survival between the two treatment groups using a stratified log-rank test. Survival curves were generated using Kaplan-Meier estimates. Hazard ratios and associated 95% confidence intervals [CI] were estimated using a stratified Cox proportional hazards model. Stratified Cochran-Mantel-Haenszel chi-square tests were used to analyze categorical data. Descriptive statistics were used to summarize patient characteristics. The safety population (randomized patients who received at least one dose of study treatment) was used for all safety analyses.

[2] = cabazitaxel vs abiraterone or enzalutamide
[3] = cabazitaxel vs abiraterone or enzalutamide, all cycles
[4] = cabazitaxel vs abiraterone or enzalutamide, end of treatment visit

CO[C@H]1C(=O)[C@]2(C)[C@@H](OC)C[C@H]3OC[C@@]3(OC(C)=O)[C@H]2[C@H](OC(=O)c2ccccc2)[C@]2(O)C[C@H](OC(=O)[C@H](O)[C@@H](NC(=O)OC(C)(C)C)c3ccccc3)C(C)=C1C2(C)C [Cabazitaxel, 4α-acetoxy-2α-benzoyloxy-5β,20-epoxy-1p-hydroxy-7β,10β-dimethoxy-9-oxo-11-taxen-13α-yl (2R,3S)-3-tert-butoxycarbonylamino-2-hydroxy-3-phenylpropionate]
Deterioration in FACT-P from baseline (HRQL of mCRPC patients): 22.2%
Emotional well-being, Kaplan-Meier probability of no deterioration at 3 months (HRQL of mCRPC patients; 3 months): 91.1
FACT-G total, Kaplan-Meier probability of no deterioration at 3 months (HRQL of mCRPC patients; 3 months): 82.3
FACT-P total, Kaplan-Meier probability of no deterioration at 3 months (HRQL of mCRPC patients; 3 months): 86.2
Functional well-being, Kaplan-Meier probability of no deterioration at 3 months (HRQL of mCRPC patients; 3 months): 73.7
Pain-related subscale, Kaplan-Meier probability of no deterioration at 3 months (HRQL of mCRPC patients; 3 months): 81.6
Physical well-being, Kaplan-Meier probability of no deterioration at 3 months (HRQL of mCRPC patients; 3 months): 76.0
Prostate-specific concerns, Kaplan-Meier probability of no deterioration at 3 months (HRQL of mCRPC patients; 3 months): 83.6
Social or family well-being, Kaplan-Meier probability of no deterioration at 3 months (HRQL of mCRPC patients; 3 months): 78.7
Trial outcome index, Kaplan-Meier probability of no deterioration at 3 months (HRQL of mCRPC patients; 3 months): 86.1
FACT-P total, deterioration events (HRQL of mCRPC patients; Table 6): 29.6%
Emotional well-being, time to deterioration HR (HRQL of mCRPC patients; [2]): 0.46**
FACT-G total, time to deterioration HR (HRQL of mCRPC patients; [2]): 0.71
FACT-P total, time to deterioration HR (HRQL of mCRPC patients; [2]): 0.72
Functional well-being, time to deterioration HR (HRQL of mCRPC patients; [2]): 0.81
Pain-related subscale, time to deterioration HR (HRQL of mCRPC patients; [2]): 0.74
Physical well-being, time to deterioration HR (HRQL of mCRPC patients; [2]): 0.82
Prostate-specific concerns, time to deterioration HR (HRQL of mCRPC patients; [2]): 0.68
Social or family well-being, time to deterioration HR (HRQL of mCRPC patients; [2]): 1.03
Trial outcome index, time to deterioration HR (HRQL of mCRPC patients; [2]): 0.65
Pain-related subscale score change from baseline, least squares mean difference (HRQL of mCRPC patients; [3]): +1.12 to +2.26
Social or family well-being change from baseline, mean difference (HRQL of mCRPC patients; [3]): −0.37 to −2.25
FACT-P total score change from baseline, mean difference (HRQL of mCRPC patients; [4]): +4.58
Pain-related subscale score change from baseline, mean difference (HRQL of mCRPC patients; [4]): +0.62
Social or family well-being change from baseline, mean difference (HRQL of mCRPC patients; [4]): −0.94
FACT-P total score change from baseline, least squares mean difference (HRQL of mCRPC patients; cabazitaxel vs abiraterone or enzalutamide, until Cycle 5): +2.67 to +5.21
Emotional well-being, deterioration events (HRQL of mCRPC patients; human, in vivo): 16.7%
Emotional well-being, deterioration events n/nT (HRQL of mCRPC patients; human, in vivo): 18/108
Emotional well-being, median time to deterioration (HRQL of mCRPC patients; human, in vivo): NE (NE-NE)
FACT-G total, deterioration events (HRQL of mCRPC patients; human, in vivo): 27.8%
FACT-G total, deterioration events n/nT (HRQL of mCRPC patients; human, in vivo): 30/108
FACT-G total, median time to deterioration (HRQL of mCRPC patients; human, in vivo): 14.8 (8.8-NE) months
FACT-P total, deterioration events n/nT (HRQL of mCRPC patients; human, in vivo): 32/108
FACT-P total, median time to deterioration (HRQL of mCRPC patients; human, in vivo): 14.8 (6.3-NE) months
Functional well-being, deterioration events (HRQL of mCRPC patients; human, in vivo): 36.1%
Functional well-being, deterioration events n/nT (HRQL of mCRPC patients; human, in vivo): 39/108
Functional well-being, median time to deterioration (HRQL of mCRPC patients; human, in vivo): NE (5.9-NE)
Improvement in total FACT-P score from baseline (HRQL of mCRPC patients; human, in vivo): 25.0%
Pain-related subscale, deterioration events (HRQL of mCRPC patients; human, in vivo): 33.3%
Pain-related subscale, deterioration events n/nT (HRQL of mCRPC patients; human, in vivo): 36/108
Pain-related subscale, median time to deterioration (HRQL of mCRPC patients; human, in vivo): 10.4 (8.5-NE) months
Physical well-being, deterioration events (HRQL of mCRPC patients; human, in vivo): 36.1%
Physical well-being, deterioration events n/nT (HRQL of mCRPC patients; human, in vivo): 39/108
Physical well-being, median time to deterioration (HRQL of mCRPC patients; human, in vivo): 14.8 (4.9-NE) months
Prostate-specific concerns, deterioration events (HRQL of mCRPC patients; human, in vivo): 32.4%
Prostate-specific concerns, deterioration events n/nT (HRQL of mCRPC patients; human, in vivo): 35/108
Prostate-specific concerns, median time to deterioration (HRQL of mCRPC patients; human, in vivo): 14.8 (9.8-NE) months
Social or family well-being, deterioration events (HRQL of mCRPC patients; human, in vivo): 32.4%
Social or family well-being, deterioration events n/nT (HRQL of mCRPC patients; human, in vivo): 35/108
Social or family well-being, median time to deterioration (HRQL of mCRPC patients; human, in vivo): 14.8 (7.9-14.8) months
Trial outcome index, deterioration events (HRQL of mCRPC patients; human, in vivo): 26.9%
Trial outcome index, deterioration events n/nT (HRQL of mCRPC patients; human, in vivo): 29/108
Trial outcome index, median time to deterioration (HRQL of mCRPC patients; human, in vivo): 14.8 (8.5-NE) months
FACT-P total, median time to deterioration (HRQL of mCRPC patients; human, in vivo, listed as cabazitaxel): 14.8 months
Improvement in total FACT-P score from baseline (HRQL of mCRPC patients; ±10 points, confirmed): 27 patients
Patients estimated to have a symptomatic skeletal event at 18 months ([1]; 18 months): 28.8%
Kaplan-Meier probability of not having symptomatic skeletal events ([1]; at 3 months): 92.6%
Kaplan-Meier probability of not having symptomatic skeletal events ([1]; at 6 months): 85.8%
Kaplan-Meier probability of not having symptomatic skeletal events ([1]; at 12 months): 79.4%
Kaplan-Meier probability of not having symptomatic skeletal events ([1]; at 18 months): 71.2%
Time to symptomatic skeletal events, hazard ratio ([1]; cabazitaxel vs androgen signaling targeted inhibitor): 0.59
Surgery to the bone (first SSE) ([1]; human, in vivo): 0 n

Reference: US20210244704A1, “Cabazitaxel in mCRPC Patients Previously Treated with Docetaxel and Who Failed a Prior androgen signaling targeted inhibitor Agent” (SANOFI MATURE IP, priority 2019, published 2021)
